Several values for one entry are separate records, joined by “and”; a condition that tells them apart may be missing. Equal entries are not always repeated. Toxic doses and inconclusive results are not listed. How the source made its calls: active means survival T/C of 150% or more; inactive means T/C below 125% in these data.
System: P388 leukemia ip, CD2F1 mice, survival T/C
Assay: NCI In Vivo Anticancer Drug Screen. Data for tumor model P388 Leukemia (intraperitoneal) in CD2F1 (CDF1) mice
Conditions: endpoint: median survival time, higher = longer survival
Method in brief: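 Mice carrying the transplanted tumor received test compound or vehicle. Survival was recorded in each group, and the value is the treated-group measurement divided by that of the vehicle-treated control group.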

[1] = dose: 50.0 mg/kg/injection, schedule: Q01DX005 (ip), vehicle: Klucel (hydroxypropylcellulose) (HPC)
[2] = dose: 100.0 mg/kg/injection, schedule: Q01DX005 (ip), vehicle: Klucel (hydroxypropylcellulose) (HPC)
[3] = dose: 50.0 mg/kg/injection, schedule: Q01DX005 (ip), vehicle: saline with Tween-80
[4] = dose: 50.0 mg/kg/injection, schedule: Q01DX009 (ip), vehicle: saline with Tween-80
[5] = dose: 100.0 mg/kg/injection, schedule: Q01DX009 (ip), vehicle: saline with Tween-80
[6] = dose: 200.0 mg/kg/injection, schedule: Q01DX009 (ip), vehicle: saline with Tween-80
[7] = dose: 60.0 mg/kg/injection, schedule: Q01DX005 (ip), vehicle: saline with Tween-80
[8] = dose: 120.0 mg/kg/injection, schedule: Q01DX005 (ip), vehicle: saline with Tween-80
[9] = dose: 12.5 mg/kg/injection, schedule: Q01DX009 (ip), vehicle: saline with Tween-80
[10] = dose: 25.0 mg/kg/injection, schedule: Q01DX009 (ip), vehicle: saline with Tween-80
[11] = dose: 100.0 mg/kg/injection, schedule: Q01DX005 (ip), vehicle: saline with Tween-80
[12] = dose: 12.5 mg/kg/injection, schedule: Q01DX005 (ip), vehicle: Klucel (hydroxypropylcellulose) (HPC)
[13] = dose: 25.0 mg/kg/injection, schedule: Q01DX005 (ip), vehicle: Klucel (hydroxypropylcellulose) (HPC)
[14] = dose: 100.0 mg/kg/injection, schedule: Q04DX003 (ip), vehicle: saline with Tween-80
[15] = dose: 50.0 mg/kg/injection, schedule: Q01DX009 (ip), vehicle: saline
[16] = dose: 100.0 mg/kg/injection, schedule: Q01DX009 (ip), vehicle: saline

Measured: T/C

C/C=C/C=C/C1=C2C(=O)N(c3ccccc3)N=C2CC(C)O1 (centres undefined)
inactive: [1] 100 % of control | [2] 104 % of control

CCN(CC)CCC(CNc1c2ccc(Cl)cc2nc2ccc(OC)cc12)c1ccccc1 (centres undefined)
inactive: dose: 12.5 mg/kg/injection, schedule: Q01DX005 (ip), vehicle: saline with Tween-80 98 % of control | dose: 25.0 mg/kg/injection, schedule: Q01DX005 (ip), vehicle: saline with Tween-80 100 % of control | [3] 108 % of control and 115 % of control

COC(=O)c1cc(NC(=O)Oc2ccccn2)cc(C(=O)OC)c1
inactive: dose: 50.0 mg/kg/injection, schedule: Q01DX009 (ip), vehicle: olive oil, sesame oil, peanut oil 98 % of control | dose: 100.0 mg/kg/injection, schedule: Q01DX009 (ip), vehicle: olive oil, sesame oil, peanut oil 97 % of control | dose: 200.0 mg/kg/injection, schedule: Q01DX009 (ip), vehicle: olive oil, sesame oil, peanut oil 99 % of control

CCCN(CCC)C(=O)O[Si](C)(C)C(C)(C)C
inactive: [4] 105 % of control | [5] 97 % of control | [6] 105 % of control

Clc1nc(C(Cl)Cl)nc2ccccc12
inactive: dose: 30.0 mg/kg/injection, schedule: Q01DX005 (ip), vehicle: saline with Tween-80 106 % of control | [7] 110 % of control and 111 % of control | [8] 111 % of control and 113 % of control

Cc1ccc(S(=O)(=O)C2(Sc3ccccc3)SC2C(=O)c2ccccc2)cc1 (centres undefined)
inactive: dose: 50.0 mg/kg/injection, schedule: Q01DX009 (ip), vehicle: Klucel (hydroxypropylcellulose) (HPC) 99 % of control | dose: 100.0 mg/kg/injection, schedule: Q01DX009 (ip), vehicle: Klucel (hydroxypropylcellulose) (HPC) 105 % of control | dose: 200.0 mg/kg/injection, schedule: Q01DX009 (ip), vehicle: Klucel (hydroxypropylcellulose) (HPC) 111 % of control

CCCCC(=O)N1C(=O)/C(=C\N(C)C)c2cc(C=O)ccc21
inactive: [4] 90 % of control | [5] 90 % of control | [6] 90 % of control

CC[C@]12C=CCN3CC[C@@]4(c5ccc(OC)cc5N(C)[C@H]4[C@@](O)(C(=O)OC)[C@@H]1OC(C)=O)[C@@H]32
inactive: [1] 98 % of control | [2] 97 % of control

N#Cc1c(-c2ccccc2)sc2ccccc2c1=O
inactive: dose: 100.0 mg/kg/injection, schedule: Q01DX001 (ip), vehicle: saline with Tween-80 99 % of control | dose: 200.0 mg/kg/injection, schedule: Q01DX001 (ip), vehicle: saline with Tween-80 93 % of control | dose: 400.0 mg/kg/injection, schedule: Q01DX001 (ip), vehicle: saline with Tween-80 98 % of control

COn1nnc2c([N+](=O)[O-])cccc21
inactive: [9] 100 % of control | [10] 94 % of control | [4] 98 % of control

CCCCCN(CCCCC)CCCCCCCCN1CCCc2ccccc21
inactive: [3] 106 % of control | [11] 108 % of control | dose: 200.0 mg/kg/injection, schedule: Q01DX005 (ip), vehicle: saline with Tween-80 117 % of control

CC(C)N(C(=O)c1cccc(C(=O)N(C(C)C)C(C)C)n1)C(C)C
inactive: [7] 101 % of control | [8] 95 % of control | dose: 240.0 mg/kg/injection, schedule: Q01DX005 (ip), vehicle: saline with Tween-80 95 % of control

O=C(Nc1cccc2c(O)c(N=Nc3ccc(S(=O)(=O)Nc4nccs4)cc3)cc(N=Nc3ccc(S(=O)(=O)Nc4nccs4)cc3)c12)C(Cl)Cl
inactive: [4] 102 % of control | [5] 106 % of control | [6] 98 % of control

COC(=O)C1C(=O)C2CCC1C(=O)C2C(=O)OC (centres undefined)
inactive: [4] 93 % of control | [5] 93 % of control | [6] 98 % of control

O=C(N=Nc1c(Cl)c(O)c2ccccc2c1O)C(=O)Nc1cccc(C(F)(F)F)c1
inactive: dose: 6.25 mg/kg/injection, schedule: Q01DX005 (ip), vehicle: Klucel (hydroxypropylcellulose) (HPC) 107 % of control | [12] 107 % of control | [13] 107 % of control | [1] 98 % of control

Cc1nc2ccccc2c(=O)n1-c1ccc(-c2nnc(Sc3nnc(-c4ccc(-n5c(C)nc6ccccc6c5=O)cc4)n3-c3ccccc3)n2-c2ccccc2)cc1
inactive: [1] 102 % of control | [2] 101 % of control | dose: 200.0 mg/kg/injection, schedule: Q01DX005 (ip), vehicle: Klucel (hydroxypropylcellulose) (HPC) 90 % of control

COc1cc(Br)c2nsnc2c1
inactive: [3] 91 % of control | [11] 91 % of control

ClCCCCCCOC1CCCCO1 (centres undefined)
inactive: [4] 110 % of control | [5] 106 % of control | [6] 97 % of control

CC1=CCC[C@@H]2C1(C)CCC(C)[C@@]2(C)CC1=CC(=O)C=CC1=O (some centres undefined)
inactive: dose: 0.62 mg/kg/injection, schedule: Q01DX005 (ip), vehicle: saline with Tween-80 99 % of control | dose: 1.25 mg/kg/injection, schedule: Q01DX005 (ip), vehicle: saline with Tween-80 103 % of control | dose: 2.5 mg/kg/injection, schedule: Q01DX005 (ip), vehicle: saline with Tween-80 99 % of control | dose: 5.0 mg/kg/injection, schedule: Q01DX005 (ip), vehicle: saline with Tween-80 98 % of control | dose: 10.0 mg/kg/injection, schedule: Q01DX005 (ip), vehicle: saline with Tween-80 103 % of control

CCC(c1ccccc1)C(C#N)c1ccccc1 (centres undefined)
inactive: [10] 95 % of control | [4] 95 % of control | [5] 94 % of control | [6] 90 % of control

CCOP(=S)(N1CC1C)N1CC1C (centres undefined)
inactive: [4] 120 % of control | dose: 66.0 mg/kg/injection, schedule: Q04DX003 (ip), vehicle: saline with Tween-80 100 % of control | [14] 109 % of control

O=C1c2ccccc2C(=O)c2c(NC(=O)C(F)(F)F)cccc21
inactive: [12] 96 % of control | [13] 93 % of control | [1] 87 % of control and 89 % of control

CCCCCCCCCCCCCCC[N+]1([O-])CCOCC1
inactive: [15] 90 % of control | [16] 91 % of control

CN1CCC(Br)(C(=O)c2ccccc2)CC1
inactive: dose: 37.5 mg/kg/injection, schedule: Q01DX009 (ip), vehicle: saline with Tween-80 100 % of control | dose: 75.0 mg/kg/injection, schedule: Q01DX009 (ip), vehicle: saline with Tween-80 100 % of control | dose: 150.0 mg/kg/injection, schedule: Q01DX009 (ip), vehicle: saline with Tween-80 104 % of control

CN1CCN(c2ncc(S(=O)(=O)Cc3ccc(Cl)cc3)c(N)n2)CC1
inactive: dose: 100.0 mg/kg/injection, schedule: Q01DX001 (ip), vehicle: saline 95 % of control | dose: 200.0 mg/kg/injection, schedule: Q01DX001 (ip), vehicle: saline 98 % of control | dose: 400.0 mg/kg/injection, schedule: Q01DX001 (ip), vehicle: saline 98 % of control

c1ccc(CN2COC3CCCCCCC32)cc1 (centres undefined)
inactive: dose: 50.0 mg/kg/injection, schedule: Q01DX005 (ip), vehicle: saline 104 % of control | dose: 100.0 mg/kg/injection, schedule: Q01DX005 (ip), vehicle: saline 112 % of control | dose: 200.0 mg/kg/injection, schedule: Q01DX005 (ip), vehicle: saline 114 % of control

O=C(CC(=O)c1ccccc1F)Nc1ccc([N+](=O)[O-])cc1
inactive: [9] 100 % of control | [10] 100 % of control | [4] 95 % of control | [14] 90 % of control | dose: 200.0 mg/kg/injection, schedule: Q04DX003 (ip), vehicle: saline with Tween-80 95 % of control | dose: 400.0 mg/kg/injection, schedule: Q04DX003 (ip), vehicle: saline with Tween-80 100 % of control

C[N+]1=C2CCCCCC2=C(N)CC1
inactive: dose: 3.13 mg/kg/injection, schedule: Q04DX003 (ip), vehicle: saline 100 % of control | dose: 6.25 mg/kg/injection, schedule: Q04DX003 (ip), vehicle: saline 104 % of control | dose: 12.5 mg/kg/injection, schedule: Q04DX003 (ip), vehicle: saline 100 % of control

Cc1nc(=S)c2ncn(-c3ccccc3)c2[nH]1
inactive: dose: 60.0 mg/kg/injection, schedule: Q01DX005 (ip), vehicle: Klucel (hydroxypropylcellulose) (HPC) 95 % of control | dose: 120.0 mg/kg/injection, schedule: Q01DX005 (ip), vehicle: Klucel (hydroxypropylcellulose) (HPC) 94 % of control

CCCC(O)C(NC(=O)CCl)C(=O)O (centres undefined)
inactive: dose: 12.5 mg/kg/injection, schedule: Q01DX009 (ip), vehicle: saline 105 % of control and 97 % of control | dose: 25.0 mg/kg/injection, schedule: Q01DX009 (ip), vehicle: saline 100 % of control | [15] 104 % of control and 88 % of control | [16] 91 % of control | dose: 200.0 mg/kg/injection, schedule: Q01DX009 (ip), vehicle: saline 86 % of control

— PubChem BioAssay AID330 (DTP/NCI, 2004)
